What was measured:
[1] = target: T1, androgen receptor (AR) (Homo sapiens, UniProt P10275, T878A); assay: Western blot of LNCaP cell lysates, AR; format: cell-based; details: 1 or 2 micromolar, 24 hours, presence or absence of DHT
T1 construct: LNCaP cells express an endogenous mutant AR that is found in prostate cancer patients; host or cells: LNCaP
T1 sequence (P10275 1-920 T878A): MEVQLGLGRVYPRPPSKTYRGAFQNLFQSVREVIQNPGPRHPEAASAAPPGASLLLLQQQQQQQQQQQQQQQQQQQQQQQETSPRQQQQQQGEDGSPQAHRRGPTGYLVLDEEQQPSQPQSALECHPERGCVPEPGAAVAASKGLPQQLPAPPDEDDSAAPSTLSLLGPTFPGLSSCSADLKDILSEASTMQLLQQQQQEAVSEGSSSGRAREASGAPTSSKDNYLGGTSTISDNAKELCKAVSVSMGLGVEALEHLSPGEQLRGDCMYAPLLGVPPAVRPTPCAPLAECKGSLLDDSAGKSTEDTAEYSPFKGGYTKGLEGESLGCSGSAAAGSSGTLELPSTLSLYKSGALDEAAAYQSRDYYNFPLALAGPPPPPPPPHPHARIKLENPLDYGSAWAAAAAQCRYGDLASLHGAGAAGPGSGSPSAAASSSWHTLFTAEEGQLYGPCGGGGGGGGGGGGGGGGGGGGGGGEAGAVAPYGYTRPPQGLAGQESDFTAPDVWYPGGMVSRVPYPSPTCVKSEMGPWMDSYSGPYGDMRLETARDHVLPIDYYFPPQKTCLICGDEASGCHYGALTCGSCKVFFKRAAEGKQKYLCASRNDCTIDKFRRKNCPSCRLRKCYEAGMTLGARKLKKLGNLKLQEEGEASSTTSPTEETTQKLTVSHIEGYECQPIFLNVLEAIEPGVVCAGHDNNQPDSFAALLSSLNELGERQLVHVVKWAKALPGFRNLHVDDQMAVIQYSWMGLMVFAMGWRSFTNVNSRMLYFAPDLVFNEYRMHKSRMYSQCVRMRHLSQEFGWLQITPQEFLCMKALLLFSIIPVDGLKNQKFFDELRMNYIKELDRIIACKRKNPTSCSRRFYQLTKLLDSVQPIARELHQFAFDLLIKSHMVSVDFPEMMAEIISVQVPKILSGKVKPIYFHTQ
Protocol: (§1) Human prostate cancer LNCaP cells and T47D cells were plated at a density of 7×10^5 cells per 60 millimeter tissue culture dish in […] (RPMI) medium containing 10% FBS. The medium was changed to RPMI or DME medium containing 10% charcoal-stripped serum 24 hours later to deplete cellular androgens or estrogens. After another 24 hours, treatment with the test compounds began. The test dose of JC15 was 1 or 2 micromolar and the test does of JC9 was 1, 5 and 10 micromolar. LNCap cells also received dihydrotestosterone (DHT) (3 nanomolar). Control cells received a corresponding amount of the vehicle, dimethylsulfoxide (DMSO) (<0.04%) for an equivalent exposure time. Cells were incubated with JC15 for 24 or 48 hours, and were lysed in 250 microliters of 1×SDS/PAGE loading buffer. Approximately 40 micrograms of total cellular protein was loaded in each lane of a pre-cast gel (NuPAGE, Invitrogen). Protein separation and transfer were performed following the manufacturer's instructions.
(§2) For the prostate cell lysates, androgen receptor (AR) protein was visualized by incubating the resultant membranes with an anti-AR antibody (BD-PharMingen), followed by chemiluminescence detection (ECL Plus, Amersham). […] The resultant protein signals were quantified using densitometry and NIH ImageJ software.

[2] = target: T2, ER beta (Homo sapiens, UniProt Q92731); assay: Western blot of LNCaP cell lysates, ER beta; format: cell-based; details: 1 or 2 micromolar, 24 hours, presence or absence of DHT
T2 construct: endogenous in cells; host or cells: LNCaP
Protocol: as §1, §2

[3] = target: T3, PPAR beta (Homo sapiens, UniProt Q03181); assay: Western blot of LNCaP cell lysates, PPAR beta; format: cell-based; details: 1 or 2 micromolar, 24 hours, presence or absence of DHT
T3 construct: endogenous in cells; host or cells: LNCaP
T3 sequence (Q03181 1-441): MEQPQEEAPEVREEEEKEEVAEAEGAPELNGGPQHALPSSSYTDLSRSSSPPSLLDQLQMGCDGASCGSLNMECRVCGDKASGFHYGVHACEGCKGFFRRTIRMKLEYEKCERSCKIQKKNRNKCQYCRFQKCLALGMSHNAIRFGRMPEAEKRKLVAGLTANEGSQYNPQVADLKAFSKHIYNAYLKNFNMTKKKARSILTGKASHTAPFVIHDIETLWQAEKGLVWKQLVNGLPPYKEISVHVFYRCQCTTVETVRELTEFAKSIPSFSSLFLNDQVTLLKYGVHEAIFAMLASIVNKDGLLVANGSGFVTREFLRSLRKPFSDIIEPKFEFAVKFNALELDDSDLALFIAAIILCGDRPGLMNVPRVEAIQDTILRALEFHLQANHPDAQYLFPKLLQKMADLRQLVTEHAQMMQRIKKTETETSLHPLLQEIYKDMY
Protocol: as §1, §2

[4] = tested on: LNCaP cells; assay: LNCaP growth assay (cell count); format: cell-based, human; details: 5 μM
Protocol: LNCaP cells express an endogenous mutant AR that is found in prostate cancer patients. This clinically relevant cell model was used to study JC9's effect in suppressing prostate cancer cell growth. Cells were plated at a density of 6.3×10^4 cells/well in 6-well tissue culture dishes. Two days later, the complete medium was aspired and 10% charcoal/dextran-treated (hormone depleted) serum-containing medium was added. Test compounds, JC9 and hydroxyflutamide (HF) were then added to the medium at a final concentration of 5 μM with or without 1 nM of DHT. For vehicle control, the same amount of DMSO was added. For the subsequent 5 days, the medium was aspired once per day, and fresh medium containing test compounds and/or DHT was added. At designated times, a portion of cells was harvested by trypsinization, and cell count was performed using a hemacytometer.

T2 sequence (Q92731 whole entry): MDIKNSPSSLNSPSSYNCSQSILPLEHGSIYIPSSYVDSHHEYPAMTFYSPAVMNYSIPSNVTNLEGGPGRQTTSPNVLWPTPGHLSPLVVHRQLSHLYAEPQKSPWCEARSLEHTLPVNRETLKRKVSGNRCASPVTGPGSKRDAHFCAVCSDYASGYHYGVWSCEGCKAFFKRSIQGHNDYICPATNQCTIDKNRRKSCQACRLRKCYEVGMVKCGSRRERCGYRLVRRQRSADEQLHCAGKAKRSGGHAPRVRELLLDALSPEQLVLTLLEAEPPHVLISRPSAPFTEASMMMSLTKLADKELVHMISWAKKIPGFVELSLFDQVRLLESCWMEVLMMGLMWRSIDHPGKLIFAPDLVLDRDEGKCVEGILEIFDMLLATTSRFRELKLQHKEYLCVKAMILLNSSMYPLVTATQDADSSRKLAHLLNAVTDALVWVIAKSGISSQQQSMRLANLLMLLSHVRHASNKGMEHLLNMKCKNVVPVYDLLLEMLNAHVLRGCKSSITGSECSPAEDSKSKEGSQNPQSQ

cellular concentration of AR [1] | cellular concentration of ER beta [2] | cellular concentration of PPAR beta [3] | Structure (SMILES) | cell growth (cell number) in the presence of DHT ([4]; with 1 nM DHT, 5 days) | cell growth (cell number) ([4]; without DHT, 5-day incubation)
decreased | did not substantially affect | did not substantially affect | CCOC(=O)CCC(C(=O)C=Cc1ccc(O)c(OC)c1)C(=O)C=Cc1ccc(O)c(OC)c1 (centres unmarked) [JC15, 7-(4-hydroxy-3-methoxyphenyl)-4-[3-(4-hydroxy-3-methoxyphenyl)acryloyl]-5-oxo-hept-6-enoic acid ethyl ester] | – | –
– | – | – | COc1ccc(C=CC(=O)C=C(O)C=Cc2ccc(OC)c(OC)c2)cc1OC [JC9, 5-hydroxy-1,7-bis(3,4-dimethoxyphenyl)-1,4,6-heptatrien-3-one] | good potency to decrease LNCaP cell growth | only a minimal number of viable cells
